Measurements from US20040138203A1, “Bicyclic lactams and sulfonamides with 5-ht1a -affinity and use thereof for preventing and treating cerebral ischaemia” (priority 2000, published 2004).

target: T1, cloned human 5-HT1A receptors (Homo sapiens, UniProt P08908); assay: 5-HT1A binding assay using membranes from 5-HT1A receptor-expressing HEK293 cells (3H-8-OH-DPAT displacement); details: 3H-8-OH-DPAT 0.15 nM, HEK293 cell membranes, 90 min at 22° C.
T1 construct: expressed in transfected cells; host or cells: HEK293 cells, kept under G-418 selection; membranes used
T1 sequence (P08908 1-422): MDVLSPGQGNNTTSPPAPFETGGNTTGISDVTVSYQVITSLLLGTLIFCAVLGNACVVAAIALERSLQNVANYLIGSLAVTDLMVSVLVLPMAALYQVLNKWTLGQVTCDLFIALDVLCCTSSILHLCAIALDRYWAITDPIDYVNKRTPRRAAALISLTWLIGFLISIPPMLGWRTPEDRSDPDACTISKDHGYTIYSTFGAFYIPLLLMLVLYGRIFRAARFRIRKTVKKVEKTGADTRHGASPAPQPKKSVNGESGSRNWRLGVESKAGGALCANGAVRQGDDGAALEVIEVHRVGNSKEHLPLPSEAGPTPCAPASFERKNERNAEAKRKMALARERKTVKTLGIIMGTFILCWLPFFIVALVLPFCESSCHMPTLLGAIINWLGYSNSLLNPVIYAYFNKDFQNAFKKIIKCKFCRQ
Experimental: The following test arrangement was used for determining the receptor binding affinity:
5-HT1A binding assay using membranes from 5-HT1A receptor-expressing HEK293 cells
Culturing 5-HT1A receptor-expressing HEK293 cells 5-HT1A-expressing HEK293 cells are cultured, at 37° C. and in a 5% CO2 atmosphere, in RPMI/Glutamax medium (RPMI 1640, 25 mM Hepes, 2 mM Glutamax, 10% FCS, 2 mM glutamine, penicillin/streptomycin (100 IU/ml each), geneticin G-418 sulfate, 400 mg/l, NaHCO3, 1.2 g/l) in culture flasks (T-175 triple flasks). After confluence has been reached, the medium is removed and the flasks are filled with 15 ml of sterile PBS (phosphate-buffered saline). The cells are detached by incubating them for 10 minutes (incubator, 37° C.) with a trypsin solution (0.05% trypsin, 0.0004% EDTA, 0.02% EGTA, 2.682 mM KCl, 1.47 mM KH2PO4, 6.46 mM NaHPO4, 136.89 mM NaCl). The detachment of the cells is promoted by knocking on the bottom of the flask. After having been transferred into 50 ml tubes (Greiner), the cells are centrifuged at 250×g at room temperature. The supernatant is discarded and the cells are resuspended in 10 ml of medium. The cells are aliquoted once again into culture flasks and cultured for a further 5 to 6 days until the membranes are prepared.
Preparing the Membranes from 5-HT1A Receptor-Expressing HEK293 Cells
The supernatants are removed from the cells and the culture flasks are filled with PBS. The cells are then incubated for 10 minutes with a trypsin solution (for composition see above). The detachment of the cells is promoted by knocking on the bottom of the flask. The cell suspension is removed and the remaining cells are likewise taken up in PBS by washing the culture flasks twice with PBS. The combined cell suspension is aliquoted into […] and centrifuged at 250×g and 4° C. for 10 minutes. The supernatants are discarded and the cells in the pellet are resuspended in PBS. 20 μl of the cell suspension are removed and the cell density is determined. The cells are centrifuged once again at 250×g (4° C.) for 10 minutes, after which the supernatant is discarded and the cells in the pellet are homogenized in 50 mM tris-HCl, pH 7.4 (1 ml/10^8 cells) using an Ultra-Turrax (30 sec).
The homogenate is aliquoted into cryotubes (1 ml/cryotube) and stored in liquid nitrogen until used in the binding assay.
The frozen membranes are thawed at 37° C., after which they are centrifuged at 48000*g (20 minutes) and then resuspended in binding buffer (50 mM Tris-HCl, pH 7.4, 5 mM CaCl2). An incubation assay mixture contains membrane material from […], 0.15 pmol (=0.15 nM) of 3H-8-OH-DPAT, and the substances to be tested, in a total of 1 ml of binding buffer. Nonspecific binding is determined in the presence of 10^−5 M 5-carboxamidotryptamine. Following a 90-minute incubation at 22° C., bound and free ligand are separated from each other by filtering through […] and subsequently washing with from 5 to 9 ml of ice-cold binding buffer. Before use, the GF/B filters are treated for at least 2 hours with 0.3% polyethylenimine. Following filtration, from 3 to 4 ml of Packard Ultima Gold XR are added to the filters and the radioactivity is determined by liquid scintillation counting in a Packard Tricarb.
Evaluating the Data from the 5-HT1A Binding Assay
The displacement curves are analyzed by nonlinear regression using a modified version of the “Ligand” program of Munson & Rodbard (Anal. Biochem., 107, 220 (1980)). The value of the theoretical nonspecific binding is assessed to be the theoretical binding of radioligand at infinitely high ligand concentration. In this connection, the measured values for the nonspecific binding are treated as data points of the displacement curve which correspond to experimental points at an infinitely high ligand concentration. […]

SMILES	Ki [nM]
O=S1(=O)c2ccccc2CN1CCN1CCN(c2nccc3ccccc23)CC1 [Example 3, 2-[2-(4-(1-Isoquinolinyl)-1-piperazinyl)-ethyl]-2,3-dihydro-1,2-benzisothiazole 1,1-dioxide]	1.6
Cc1cccc(N2CCN(CCN3Cc4ccccc4C3=O)CC2)n1 [Example 4, 2-[2-(4-(6-Methyl-2-pyridinyl)-1-piperazinyl)-ethyl]-1-isoindolinone]	2.6
O=C1Cc2ccccc2N1CCN1CCN(c2cccc(C(F)(F)F)c2)CC1 [Example 5, 1-[2-(4-(3-Trifluoromethylphenyl)-1-piperazinyl)ethyl]-1,3-dihydro-2H-indol-2-one]	2.9
O=C1CCc2ccccc2N1CCN1CCN(c2nccc3ccccc23)CC1 [Example 6, 1-[2-(4-(1-Isoquinolinyl)-1-piperazinyl)-ethyl]-3,4-dihydro-2(1H)-quinolinone]	4.1
O=c1ccc2ccccc2n1CCN1CCN(c2nccc3ccccc23)CC1 [Example 7, 1-[2-(4-(1-Isoquinolinyl)-1-piperazinyl)-ethyl]-2(1H)-quinolinone]	2.4
O=S1(=O)c2ccccc2CN1CCN1CCN(c2cccc(C(F)(F)F)c2)CC1 [Example 13, 2-[2-(4-(3-Trifluoromethylphenyl)-1-piperazinyl)ethyl]-2,3-dihydro-1,2-benzisothiazole 1,1-dioxide]	1
O=C1Cc2ccccc2N1CCN1CCN(c2nccc3ccccc23)CC1 [Example 19, 1-[2-(4-(1-Isoquinolinyl)-1-piperazinyl)ethyl]-1,3-dihydro-2H-indol-2-one]	0.7
O=C1c2ccccc2CN1CCN1CCN(c2nccc3ccccc23)CC1 [Example 22, 2-[2-(4-(1-Isoquinolinyl)-1-piperazinyl)ethyl]-1-isoindolinone]	5.4

The next molecules have a lower Ki than those just listed; values first:

Ki [nM]	SMILES
0.6	O=C1c2ccccc2CCN1CCN1CCN(c2nccc3ccccc23)CC1 [Example 1, 2-[2-(4-(1-Isoquinolinyl)-1-piperazinyl)ethyl]-3,4-dihydro-1(2H)-isoquinolinone]
0.6	O=c1c2ccccc2ccn1CCN1CCN(c2nccc3ccccc23)CC1 [Example 2, 2-[2-(4-(1-Isoquinolinyl)-1-piperazinyl)-ethyl]-1(2H)-isoquinolinone]
0.1	O=S1(=O)c2ccccc2CN1CCN1CCN(c2cccc3ccccc23)CC1 [Example 8, 2-[2-(4-(1-Naphthyl)-1-piperazinyl)ethyl]-2,3-dihydro-1,2-benzisothiazole 1,1-dioxide]
0.5	Cc1cccc(N2CCN(CCN3Cc4ccccc4S3(=O)=O)CC2)n1 [Example 10, 2-[2-(4-(6-Methyl-2-pyridinyl)-1-piperazinyl)ethyl]-2,3-dihydro-1,2-benzisothiazole 1,1-dioxide]
